Laboratory results reported in ChEMBL document CHEMBL3045763, “Synthesis and evaluation of anti-proliferative activity of 1,4-disubstituted phthalazines” (Med Chem Res, 2012).

Test system: MCF7
Experiment: Antiproliferative activity against Homo sapiens (human) MCF7 cells after 72 hr by SRB assay
Assay type: functional, cell-based
Conditions: MCF7, 72 h

Compound | IC50
COc1ccc(N2CCN(c3nnc(-c4ccc(Br)cc4)c4ccccc34)CC2)cc1 | 17.5 µM
CCOc1ccccc1N1CCN(c2nnc(-c3ccc(Br)cc3)c3ccccc23)CC1 | 4.77 µM
Brc1ccc(-c2nnc(N(Cc3ccccc3)Cc3ccccc3)c3ccccc23)cc1 | 4.8 µM
Brc1ccc(-c2nnc(N3CCOCC3)c3ccccc23)cc1 | 1.9 µM
Brc1ccc(-c2nnc(N3CCCCC3)c3ccccc23)cc1 | 9.1 µM
Brc1ccc(-c2nnc(Sc3nc4ccccc4s3)c3ccccc23)cc1 | 2.3 µM
Brc1ccc(-c2nnc(N3CCN(c4ccccc4)CC3)c3ccccc23)cc1 | 9.7 µM
COc1ccccc1N1CCN(c2nnc(-c3ccc(Br)cc3)c3ccccc23)CC1 | 8.6 µM

These reach a lower IC50. Values come first.

IC50 | Compound
1.7 µM | Clc1cccc(Cl)c1Nc1nnc(-c2ccc(Br)cc2)c2ccccc12
1.7 µM | Clc1ncccc1Nc1nnc(-c2ccc(Br)cc2)c2ccccc12
1.5 µM | CN1CCN(c2nnc(-c3ccc(Br)cc3)c3ccccc23)CC1
1.4 µM | Brc1ccc(-c2nnc(Nc3nccs3)c3ccccc23)cc1
